Results: patent US20260207590A1, “CTPS1 INHIBITORS FOR USE IN THE TREATMENT OF CTPS2 DEFICIENT CANCER” (STEP PHARMA S.A.S., priority 2022, published 2026)

What was measured:
human cancer cell lines = assay: Human cancer cell line viability with CTPS-IA (CellTiter-Glo, 72 hours), IC50 correlated with CTPS1/CTPS2 RNA expression; type: cell-based; conditions: all three cell line sets (19, 60, 103 lines); P-value>0.05 in all cases
From the text: CTPS2 expression levels were also found to correlate with IC50 values for CTPS-IA. […] A nonlinear regression model was used to calculate half maximal inhibitory concentration (IC50). CTPS1 and CTPS2 expression levels, measured by RNA abundance, were either generated by RNA sequencing or retrieved from the publicly available Cancer Cell Line Encyclopedia. In a set of 19 human cancer cell lines derived from haematological cancers, lower CTPS2 expression was associated with increased sensitivity to CTPS-IA (Pearson correlation r=0.50, P-value=0.0007). In a set of 60 human cancer cell lines covering common cancer types, lower CTPS2 expression was associated with increased sensitivity to CTPS-IA (Pearson correlation r=0.24, P-value=<0.0001). In an independent set of 103 human cancer cell lines covering common cancer types, lower CTPS2 expression was associated with increased sensitivity to CTPS-IA (Pearson correlation r=0.14, P-value=<0.0001).

CTPS1 = target: T1, CTPS1 (Homo sapiens, UniProt P17812); conditions: see e.g. WO2020083975 (CTPS-IA), WO2020245664 (CTPS-IB); cited from earlier work
T1 sequence (P17812 1-591): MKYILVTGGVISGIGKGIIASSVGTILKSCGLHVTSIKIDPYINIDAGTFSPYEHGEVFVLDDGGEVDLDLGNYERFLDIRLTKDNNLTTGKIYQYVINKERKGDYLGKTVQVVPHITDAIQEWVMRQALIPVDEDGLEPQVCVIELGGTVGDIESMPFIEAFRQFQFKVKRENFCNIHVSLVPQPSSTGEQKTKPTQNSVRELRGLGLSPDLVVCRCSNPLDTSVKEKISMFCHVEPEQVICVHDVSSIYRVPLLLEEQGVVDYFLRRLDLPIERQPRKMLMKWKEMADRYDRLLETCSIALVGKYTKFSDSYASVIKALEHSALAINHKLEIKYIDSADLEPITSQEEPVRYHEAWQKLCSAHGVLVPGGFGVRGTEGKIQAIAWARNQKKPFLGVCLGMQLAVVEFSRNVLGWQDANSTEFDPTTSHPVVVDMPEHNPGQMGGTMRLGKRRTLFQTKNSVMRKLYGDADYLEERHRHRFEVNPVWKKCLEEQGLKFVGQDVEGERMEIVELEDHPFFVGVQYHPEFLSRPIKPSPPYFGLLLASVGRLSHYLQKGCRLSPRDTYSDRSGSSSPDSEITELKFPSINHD

Structure (SMILES)	Association of the level of CTPS1 expression with sensitivity to CTPS-IA (human cancer cell lines)	CTPS1 inhibition and selectivity (in words) (CTPS1)
CCOc1cncc(-c2ccc(NC(=O)C3(c4ccnc(NS(=O)(=O)C5CC5)n4)CCOCC3)nc2)n1 [CTPS-IA, 4-(2-(cyclopropanesulfonamido)pyrimidin-4-yl)-N-(5-(6-ethoxypyrazin-2-yl)pyridin-2-yl)tetrahydro-2H-pyran-4-carboxamide]	not associated with sensitivity to CTPS-IA	potent and selective inhibitor of CTPS1
CCOc1cncc(-c2ccc(NC(=O)C3(c4ccnc(NS(=O)(=O)CC)n4)CCOCC3)nc2)n1 [CTPS-IB, N-(5-(6-ethoxypyrazin-2-yl)pyridin-2-yl)-4-(2-(ethylsulfonamido)pyrimidin-4-yl)tetrahydro-2H-pyran-4-carboxamide]		potent and selective inhibitor of CTPS1
